Test [1] deals with glucocorticoid receptors (GR). The experiment in a line: GR content of murine B16-F1 cells by [3H]-labeled ligand whole-cell binding assay. The following applies: B16-F1-RFP tumors; day 15. The protocol: Measurement of the GR Content of Cancer Cell Lines by [^3H]-Labeled Ligand Binding Assay. The GR content was measured by a whole-cell binding assay as previously described with some modifications (Harmon, J. M. & Thompson, E. B. […] Briefly 72 h-cultured melanoma cells were harvested, as indicated above, and resuspended in culture medium to a density of 5×10^6 cells/mL. […] Cells were then washed thrice in 5.0 mL of Hank's balanced salt solution and finally suspended in 1.5 mL of the same solution. […] The presence of at least 200-fold excess of unlabeled dexamethasone effectively competed out all of the binding of [^3H]-dexamethasone to specific GR. The binding of [^3H]-dexamethasone to specific GR was represented as the difference in disintegrations per minute per cell between those samples incubated with [^3H]-dexamethasone alone and those with at least 200-fold excess of unlabeled dexamethasone. Using the specific activity of [^3H]-dexamethasone, the number of receptors per cell was calculated, assuming that each receptor binds to one dexamethasone molecule.

The test system of test [2] is A549 cells isolated from tumor-bearing mice. The experiment in a line: Chemosensitization of cultured A549 cells isolated from xenografts. Format: cell-based, human. As to conditions: 72 h-cultured, PL 0.5 μM, Chemo 1 μM VRB and 15 μM cisPt, Pter = in vivo pretreatment. The method, then:
FIGS. 18-25. Effect of piperlongumine and I-BET762, as GSH depleting and chemosensitizing agents, in in vitro growing human melanoma, pancreatic, breast, lung, liver, prostate, ovarian, and colorectal cancer cells. Cancer cells, isolated from Pter-treated tumor-bearing mice, were cultured as indicated under Methods. Chemotherapy (0.25 μM PAC.PBP in A2058 melanoma and MDA-MB-231 breast carcinoma cells; 0.125 μM PAC.PBP and 25 μM GTB in AsPC-1 pancreatic cancer cells; 1 μM VRB and 15 μM cisPt in A459 lung carcinoma cells; 0.15 μM DXR in HepG2 hepatocellular carcinoma cells; 15 nM DCT in PC-3 prostate carcinoma cells; 0.15 μM PAC.PBP and 25 μM CarboPt in SK-OV-3 ovarian carcinoma cells; 3 μM 5-FU, 1 μM FA and 0.6 μM IRI in HT-29 colorectal carcinoma cells) was added to the cultured flasks 24 h after seeding. […]
Human A2058, MeWo and MelJuso melanoma cells, and mouse AtT-20 pituitary corticotroph tumor cells were from the American Type Culture Collection (ATCC). […] Cell numbers were determined using a Coulter Counter (Coulter Electronic Inc., Miami, Fla.). […] Cellular viability was assessed as previously reported (Mena, S. et al. Clin Cancer Res 13, 2658-2666 (2007)), by measuring trypan blue exclusion and leakage of lactate dehydrogenase activity. […]
(A xenograft is tissue or cells of one species grown in another, often human tumour cells in immunodeficient mice.)

Another test relates to A2058 melanoma. Kind of test: In vivo growth of A2058 melanoma xenografts in nu/nu mice. Set-up: species or system human.

This note sets out measurements from patent US11179348B2, “Combination comprising pterostilbene for the treatment of cancer” (FUNDACIÓN UNIVERSIDAD CATÓLICA DE VALENCIA SAN VICENTE …, priority 2015, dated 2021).

Marks after values point to notes of the source that are not given here.

With `COc1cc(/C=C/c2ccc(O)cc2)cc(OC)c1` [Pter, trans-3,5-dimethoxy-4′-hydroxystilbene], in test [1], the “GR number (binding sites/cell)” value is listed as 112 ± 16 10^3 GR/cell. In addition, the Viable cells in test [2] is given as 1317 ± 255 ×10^6. Also, in the test on A2058 melanoma (A2058, day 35, 30 mg Pter/kg i.v. every 48 h, vs controls), the “inhibition of tumor growth” value was “approx. 70%”. The Tumor vol. with A2058 melanoma (A2058-RFP, 35 days after inoculation, Pter 30 mg/kg i.v. every 48 h and/or CRC infusion 0.3 μg/h) is 258 ± 66* mm^3.
